{
  "source": "patent US8029799B2",
  "about": "“Use of thymosin alpha 1 for preparing a medicament for the treatment of stage IV malignant melanoma” (SciClone Pharmaceuticals, Inc., priority 2006, dated 2011)",
  "key": {"[1]": {"tested_on": "Stage IV Melanoma Characterized by Distant Unresectable Metastases", "assay": "Phase II clinical trial, tumor response (RECIST) in stage IV melanoma patients", "format": "in vivo, human", "settings": "preliminary analysis on 142 patients; higher doses of Tα1", "method": "Trial Design phase II, randomized, stratified, open-study testing different doses of Tα1 in association with DTIC and IFNα, as first line therapy for stage IV melanoma patients characterized by distant unresectable metastases (AJCC; Journal of Clinical Oncology 2001, 19: 3635-3648) without brain metastases. The primary study end-point was tumor response, and the following combination composition were used: • DTIC (800 mg/m^2)+IFNα (3 MIU)+Tα1 (1.6 mg) (97 pts); • DTIC (800 mg/m^2)+IFNα (3 MIU)+Tα1 (3.2 mg) (97 pts); • DTIC (800 mg/m^2)+Tα1 (3.2 mg) (98 pts); • DTIC (800 mg/m^2)+IFNα (3 MIU) (94 pts);\nThe five groups were analyzed independently one another within the so-called “pick the winner” strategy.\nMethods: Recycling every 28 days, patients were administered DTIC (800 mg/m^2) i.v. at day 1, Tα1 (1.6, 3.2 or 6.4 mg) s.c. at days 8-11 and 15-18, and IFNα (3 MIU) s.c. at day 11 and 18. Clinical response was evaluated every two cycles according to RECIST criteria (New Guidelines to Evaluate the Response to Treatment in Solid Tumors; Journal of the National Cancer Institute, 2000. 92: 205-216) utilizing a central reader.\nThe randomized patients were stratified according to the disease site: M1a, M1b or M1c level.\n1) Patients with cutaneous, subcutaneous and/or limphnodal metastases with normal serum LDH value (from 96 to 460 U/L) were classified as M1a. […]"}, "[2]": {"tested_on": "human non-small cell lung cancer (NSCLC) cells", "settings": "1 or 10 mg per day subcutaneous; nude mice inoculated with human NSCLC cells; cited from earlier work"}, "[3]": {"tested_on": "methylcholanthrene-induced fibrosarcoma", "settings": "mice with methylcholanthrene-induced fibrosarcoma; cited from earlier work"}, "[4]": {"tested_on": "lymphosarcoma cells", "settings": "BALB/c mice; cited from earlier work"}},
  "note": "Ends that are not written are not given here.",
  "data": [
    {"substance": "thymosin alpha 1 (SDAAVDTSSEITTKDLKEKKEVVEEAEN; ends and bridges not checked; UniProt P06454 2-29, looked up) [a compound well known in the medical field]", "values": [
      {"measurement": "dose-response effect", "setting": "[1]", "value": "clear dose-response effect"},
      {"measurement": "tumor volume", "setting": "[2]", "value": "significantly decreased"},
      {"measurement": "pulmonary metastases", "setting": "[3]", "value": "reduced"},
      {"measurement": "liver and lung metastases of lymphosarcoma cells", "setting": "[4]", "value": "significantly reduced"},
      {"measurement": "local sarcoma growth", "setting": "[4]", "value": "significantly reduced"}
    ]}
  ]
}
